Data on nine molecules can be found in ChEMBL document CHEMBL5291721, “A preclinical secondary pharmacology resource illuminates target-adverse drug reaction associations of marketed drugs” (Nat Commun, 2023).

The structures appear in SMILES notation.

One assay addresses Bile salt export pump (Homo sapiens, UniProt O95342). Type of assay: functional.
Assay [1] deals with T1, Alpha-2A adrenergic receptor (Homo sapiens, UniProt P08913).
T1 sequence (P08913 whole entry): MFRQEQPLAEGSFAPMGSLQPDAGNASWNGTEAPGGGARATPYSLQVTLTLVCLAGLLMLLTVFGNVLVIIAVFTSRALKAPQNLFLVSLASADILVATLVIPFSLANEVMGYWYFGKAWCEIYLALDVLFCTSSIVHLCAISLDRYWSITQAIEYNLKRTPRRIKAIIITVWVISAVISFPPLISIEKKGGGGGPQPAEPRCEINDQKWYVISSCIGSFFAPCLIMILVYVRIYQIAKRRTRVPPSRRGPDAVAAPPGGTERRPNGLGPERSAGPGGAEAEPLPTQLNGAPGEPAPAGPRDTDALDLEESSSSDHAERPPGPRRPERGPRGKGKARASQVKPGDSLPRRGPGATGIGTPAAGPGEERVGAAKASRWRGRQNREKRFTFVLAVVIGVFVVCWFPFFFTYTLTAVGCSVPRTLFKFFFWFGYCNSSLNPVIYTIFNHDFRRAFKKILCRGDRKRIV
Type of assay: functional, cell-based.

In assay [2] the target is T2, Alpha-2C adrenergic receptor (Homo sapiens, UniProt P18825).
T2 sequence (P18825 whole entry): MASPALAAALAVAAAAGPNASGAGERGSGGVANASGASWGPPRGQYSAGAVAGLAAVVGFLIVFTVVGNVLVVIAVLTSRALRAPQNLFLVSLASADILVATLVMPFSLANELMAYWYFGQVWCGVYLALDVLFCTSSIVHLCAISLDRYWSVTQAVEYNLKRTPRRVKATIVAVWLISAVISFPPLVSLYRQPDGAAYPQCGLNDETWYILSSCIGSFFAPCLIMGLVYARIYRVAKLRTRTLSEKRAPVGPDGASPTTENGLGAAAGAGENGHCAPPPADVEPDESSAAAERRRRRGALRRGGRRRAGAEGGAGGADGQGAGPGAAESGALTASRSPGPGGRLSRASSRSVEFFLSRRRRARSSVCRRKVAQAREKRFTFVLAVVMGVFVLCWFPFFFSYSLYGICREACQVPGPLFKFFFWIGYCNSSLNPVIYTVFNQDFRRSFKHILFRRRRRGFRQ
The class given is functional.

Assay [3] concerns the target T3, Gastrin/cholecystokinin type B receptor (Homo sapiens, UniProt P32239).
T3 sequence (P32239 whole entry): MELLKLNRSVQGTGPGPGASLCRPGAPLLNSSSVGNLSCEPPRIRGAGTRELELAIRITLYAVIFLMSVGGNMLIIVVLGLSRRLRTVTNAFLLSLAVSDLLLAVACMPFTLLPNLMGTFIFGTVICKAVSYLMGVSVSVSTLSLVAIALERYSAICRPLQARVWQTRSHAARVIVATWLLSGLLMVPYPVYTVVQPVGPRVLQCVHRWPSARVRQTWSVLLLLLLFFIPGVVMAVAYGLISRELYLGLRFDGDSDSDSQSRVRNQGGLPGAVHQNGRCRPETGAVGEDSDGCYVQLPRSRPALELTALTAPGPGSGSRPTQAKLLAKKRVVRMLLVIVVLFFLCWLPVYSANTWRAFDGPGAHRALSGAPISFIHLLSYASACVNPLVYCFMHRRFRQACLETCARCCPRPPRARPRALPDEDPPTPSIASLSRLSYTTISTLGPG

The target of a further assay is T4, Endothelin-1 receptor (Homo sapiens, UniProt P25101).
T4 sequence (P25101 whole entry): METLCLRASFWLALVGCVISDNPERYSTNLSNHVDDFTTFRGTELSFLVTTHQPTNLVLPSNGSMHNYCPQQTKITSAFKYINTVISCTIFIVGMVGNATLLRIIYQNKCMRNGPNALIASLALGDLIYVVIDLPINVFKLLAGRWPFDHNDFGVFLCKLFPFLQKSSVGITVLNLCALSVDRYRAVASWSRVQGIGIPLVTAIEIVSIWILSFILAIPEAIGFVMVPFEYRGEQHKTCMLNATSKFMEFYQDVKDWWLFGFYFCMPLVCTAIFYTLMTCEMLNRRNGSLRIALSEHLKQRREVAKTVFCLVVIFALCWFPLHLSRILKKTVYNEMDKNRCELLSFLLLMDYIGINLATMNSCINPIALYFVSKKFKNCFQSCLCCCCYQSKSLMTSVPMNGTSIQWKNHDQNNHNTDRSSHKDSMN

Assay [4] addresses Gamma-aminobutyric acid receptor subunit alpha-1 (Rattus norvegicus, UniProt P62813).
In assay [5] the target is T5, Neuropeptide Y receptor type 1 (Homo sapiens, UniProt P25929).
T5 sequence (P25929 whole entry): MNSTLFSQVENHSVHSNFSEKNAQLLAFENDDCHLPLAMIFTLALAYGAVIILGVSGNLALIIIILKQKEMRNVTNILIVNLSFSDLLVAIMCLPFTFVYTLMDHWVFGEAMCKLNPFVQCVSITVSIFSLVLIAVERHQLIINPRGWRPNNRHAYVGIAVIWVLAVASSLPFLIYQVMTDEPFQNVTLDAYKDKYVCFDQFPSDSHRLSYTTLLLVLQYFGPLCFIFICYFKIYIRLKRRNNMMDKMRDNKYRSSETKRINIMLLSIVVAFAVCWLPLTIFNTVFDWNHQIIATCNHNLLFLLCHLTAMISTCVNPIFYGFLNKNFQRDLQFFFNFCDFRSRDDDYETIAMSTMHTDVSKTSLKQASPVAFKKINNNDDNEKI

Assay [6] has as its target Kappa-type opioid receptor (Homo sapiens, UniProt P41145).
Assay [7] addresses 3',5'-cyclic-AMP phosphodiesterase 4D (Homo sapiens, UniProt Q08499). Type of assay: functional.
Also: assay procedure not described here.

Sequence of 3',5'-cyclic-AMP phosphodiesterase 4D (Q08499 whole entry): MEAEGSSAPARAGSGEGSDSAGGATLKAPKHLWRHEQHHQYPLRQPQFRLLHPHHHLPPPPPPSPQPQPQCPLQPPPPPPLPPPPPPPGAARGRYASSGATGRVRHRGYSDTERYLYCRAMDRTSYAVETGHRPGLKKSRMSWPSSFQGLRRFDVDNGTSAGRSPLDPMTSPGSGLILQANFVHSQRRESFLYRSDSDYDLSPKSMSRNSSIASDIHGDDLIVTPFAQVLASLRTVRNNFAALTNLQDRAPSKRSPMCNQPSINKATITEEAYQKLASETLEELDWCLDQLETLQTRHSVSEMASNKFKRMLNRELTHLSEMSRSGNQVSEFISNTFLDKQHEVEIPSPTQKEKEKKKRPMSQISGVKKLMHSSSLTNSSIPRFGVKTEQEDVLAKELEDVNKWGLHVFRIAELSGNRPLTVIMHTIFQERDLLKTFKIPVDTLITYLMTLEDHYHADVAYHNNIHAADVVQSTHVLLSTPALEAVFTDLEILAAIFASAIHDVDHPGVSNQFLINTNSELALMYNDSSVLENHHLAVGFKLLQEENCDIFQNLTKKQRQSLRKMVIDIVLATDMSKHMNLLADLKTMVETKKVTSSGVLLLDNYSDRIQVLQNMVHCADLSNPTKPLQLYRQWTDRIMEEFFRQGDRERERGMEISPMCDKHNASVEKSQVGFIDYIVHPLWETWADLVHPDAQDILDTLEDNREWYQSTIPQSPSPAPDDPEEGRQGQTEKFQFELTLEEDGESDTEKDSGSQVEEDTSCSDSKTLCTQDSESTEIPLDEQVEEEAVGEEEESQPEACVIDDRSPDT
Sequence of Kappa-type opioid receptor (P41145 whole entry): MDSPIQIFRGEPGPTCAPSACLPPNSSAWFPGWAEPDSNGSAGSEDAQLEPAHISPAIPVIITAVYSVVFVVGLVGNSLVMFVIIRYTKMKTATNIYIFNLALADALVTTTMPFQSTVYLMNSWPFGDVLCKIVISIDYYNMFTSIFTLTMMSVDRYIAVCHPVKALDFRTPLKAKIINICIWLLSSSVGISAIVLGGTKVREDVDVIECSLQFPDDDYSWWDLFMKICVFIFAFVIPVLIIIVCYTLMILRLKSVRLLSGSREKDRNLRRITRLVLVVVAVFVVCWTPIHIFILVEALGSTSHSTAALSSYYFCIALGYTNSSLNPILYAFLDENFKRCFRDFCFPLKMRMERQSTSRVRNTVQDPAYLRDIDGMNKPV
Sequence of Bile salt export pump (O95342 whole entry): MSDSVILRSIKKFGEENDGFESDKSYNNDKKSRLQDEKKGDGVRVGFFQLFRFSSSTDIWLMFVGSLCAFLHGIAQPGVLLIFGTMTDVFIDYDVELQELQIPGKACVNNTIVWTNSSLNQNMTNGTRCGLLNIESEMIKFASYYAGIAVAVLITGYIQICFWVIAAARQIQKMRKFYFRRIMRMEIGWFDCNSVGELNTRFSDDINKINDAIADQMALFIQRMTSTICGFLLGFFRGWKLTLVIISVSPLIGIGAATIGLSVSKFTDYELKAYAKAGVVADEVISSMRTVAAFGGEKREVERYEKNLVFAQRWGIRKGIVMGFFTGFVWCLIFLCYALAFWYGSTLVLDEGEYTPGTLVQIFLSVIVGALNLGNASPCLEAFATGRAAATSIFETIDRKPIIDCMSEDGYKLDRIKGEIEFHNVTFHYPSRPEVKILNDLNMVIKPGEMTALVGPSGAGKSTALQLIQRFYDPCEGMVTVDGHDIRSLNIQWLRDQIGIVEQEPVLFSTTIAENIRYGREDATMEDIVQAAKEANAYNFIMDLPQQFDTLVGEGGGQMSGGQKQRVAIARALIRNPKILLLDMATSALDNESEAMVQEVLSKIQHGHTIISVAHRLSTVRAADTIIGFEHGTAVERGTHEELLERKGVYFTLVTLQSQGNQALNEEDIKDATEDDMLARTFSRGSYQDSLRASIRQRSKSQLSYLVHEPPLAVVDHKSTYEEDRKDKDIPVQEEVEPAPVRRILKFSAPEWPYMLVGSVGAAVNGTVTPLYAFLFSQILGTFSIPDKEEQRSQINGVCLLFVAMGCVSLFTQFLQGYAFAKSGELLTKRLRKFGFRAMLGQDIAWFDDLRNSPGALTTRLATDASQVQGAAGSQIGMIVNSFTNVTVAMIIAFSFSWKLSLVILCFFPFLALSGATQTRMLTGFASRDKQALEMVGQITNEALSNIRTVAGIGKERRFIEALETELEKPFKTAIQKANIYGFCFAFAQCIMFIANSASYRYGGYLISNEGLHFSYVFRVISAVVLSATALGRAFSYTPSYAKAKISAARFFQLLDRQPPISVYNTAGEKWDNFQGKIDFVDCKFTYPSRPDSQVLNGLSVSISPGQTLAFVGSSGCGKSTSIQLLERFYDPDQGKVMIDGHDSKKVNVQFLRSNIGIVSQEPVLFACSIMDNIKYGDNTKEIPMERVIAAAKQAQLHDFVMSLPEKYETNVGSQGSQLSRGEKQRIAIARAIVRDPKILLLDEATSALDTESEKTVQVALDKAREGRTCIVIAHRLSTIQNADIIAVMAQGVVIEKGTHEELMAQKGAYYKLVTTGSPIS
Sequence of Gamma-aminobutyric acid receptor subunit alpha-1 (P62813 whole entry): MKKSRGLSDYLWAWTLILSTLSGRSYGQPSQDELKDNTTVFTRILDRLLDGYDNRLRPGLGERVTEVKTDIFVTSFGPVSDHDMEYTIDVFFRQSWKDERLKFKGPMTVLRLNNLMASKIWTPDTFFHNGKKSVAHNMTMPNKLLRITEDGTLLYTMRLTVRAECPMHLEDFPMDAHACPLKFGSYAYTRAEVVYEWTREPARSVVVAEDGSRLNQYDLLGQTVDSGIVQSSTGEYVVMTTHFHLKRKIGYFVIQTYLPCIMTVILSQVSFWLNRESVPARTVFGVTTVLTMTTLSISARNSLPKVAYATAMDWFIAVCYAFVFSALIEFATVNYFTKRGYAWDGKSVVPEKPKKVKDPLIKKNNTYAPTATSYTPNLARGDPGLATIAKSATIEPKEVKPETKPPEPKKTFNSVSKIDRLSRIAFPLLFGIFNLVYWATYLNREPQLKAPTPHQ

As usually defined, the AC50 is the concentration giving half of the maximal activity seen. `CC(C(=O)O)c1ccc2oc(-c3ccc(Cl)cc3)nc2c1` (stereo unspecified) [BENOXAPROFEN]: the half-maximal activity concentration (AC50) is 120 µM on Bile salt export pump; > 30 µM in assay [1]; > 30 µM in [2]; > 10 µM in assay [3]; > 30 µM on Endothelin-1 receptor; > 30 µM in assay [4]. In addition, the AC50 in [5], in assay [6] and in assay [7] was > 30 µM in each case.

Take `CCCNC(=O)NS(=O)(=O)c1ccc(Cl)cc1` [CHLORPROPAMIDE]: the AC50 at Bile salt export pump is > 300 µM; in assay [1] it was > 10 µM; in assay [2], > 10 µM; in [3], > 30 µM; at Endothelin-1 receptor it was > 30 µM; in assay [4], > 10 µM. The AC50 was > 30 µM in assay [5], > 10 µM in assay [6] and > 30 µM in [7].

As to `CCC(=O)O[C@]1(C(=O)CCl)[C@@H](C)C[C@H]2[C@@H]3CCC4=CC(=O)C=C[C@]4(C)[C@@]3(F)[C@@H](O)C[C@@]21C` [CLOBETASOL PROPIONATE], the AC50 on Bile salt export pump was 23 µM; in assay [1] it was > 30 µM; in assay [2], > 30 µM; in [3], > 30 µM; at Endothelin-1 receptor, > 30 µM; in assay [4], > 30 µM. Further, the AC50 is > 10 µM in assay [5], > 30 µM in assay [6] and > 30 µM in assay [7].

`CCCCCCCN(CC)CCCC(O)c1ccc(NS(C)(=O)=O)cc1` (stereo unspecified) [IBUTILIDE]: the AC50 is > 300 µM at Bile salt export pump; > 30 µM in [1]; 3.2 µM in [2]; > 30 µM in assay [3]; > 30 µM on Endothelin-1 receptor; > 30 µM in [4]. Moreover, the AC50 in assay [5], in [6] and in assay [7] was > 30 µM throughout.

Take `CC[C@H](C)C(=O)O[C@H]1C[C@@H](C)C=C2C=C[C@H](C)[C@H](CC[C@@H]3C[C@@H](O)CC(=O)O3)[C@H]21` [LOVASTATIN]: the AC50 is 27 µM on Bile salt export pump; > 10 µM in assay [1]; > 10 µM in assay [2]; > 30 µM in [3]; > 30 µM at Endothelin-1 receptor; > 10 µM in assay [4]. In addition, the half-maximal activity concentration (AC50) in assay [5] is > 30 µM; in [6], > 10 µM; in assay [7], > 30 µM.

For `CC[C@@H](CO)NC(=O)[C@@H]1C=C2c3cccc4c3c(cn4C)C[C@H]2N(C)C1` [METHYSERGIDE], the AC50 is 180 µM on Bile salt export pump; 11 µM in assay [1]; 3.5 µM in assay [2]; > 30 µM in assay [3]; > 30 µM at Endothelin-1 receptor; > 10 µM in [4]. Besides, the AC50 in assay [5] was > 30 µM; in assay [6] it was > 10 µM; in assay [7] it was > 30 µM.

Take `CN1Cc2c(N)cccc2C(c2ccccc2)C1` (stereo unspecified) [NOMIFENSINE]: the concentration at half-maximal activity (AC50) at Bile salt export pump was > 300 µM; in [1], > 30 µM; in [2], > 30 µM; in [3], > 30 µM; on Endothelin-1 receptor, > 30 µM; in assay [4] it was > 30 µM. For the same molecule, the AC50 in [5], in assay [6] and in [7] was > 30 µM throughout.

`Cn1cc(C(=O)[C@@H]2CCc3nc[nH]c3C2)c2ccccc21` [RAMOSETRON]: the AC50 is > 300 µM at Bile salt export pump; 4.3 µM in assay [1]; 11 µM in [2]; > 30 µM in [3]; > 30 µM on Endothelin-1 receptor; > 30 µM in assay [4]. Further, the AC50 was > 30 µM in assay [5], 17 µM in [6] and > 30 µM in [7].

For the molecule `CN(CCOc1ccc(CC2SC(=O)NC2=O)cc1)c1ccccn1` (stereo unspecified) [ROSIGLITAZONE], the AC50 at Bile salt export pump is 1 µM; in [1], 8.6 µM; in assay [2], > 30 µM; in assay [3], > 30 µM; at Endothelin-1 receptor, > 30 µM; in assay [4] it was > 30 µM. In addition, the AC50 is > 30 µM in [5], > 30 µM in assay [6] and 29 µM in assay [7].
